Molecular target: T1, human FXa (Homo sapiens, UniProt P00742)
T1 construct: human FXa, Haematologic Technologies Inc; purchased Haematologic Technologies Inc
Experiment: Measurement of Factor Xa Inhibition (chromogenic substrate method)
Assay type: biochemical
Conditions: inhibition of Factor Xa activity, screen a); chromogenic substrate S-2765, 40 min at 37° C.; specimen results
Description: a) Measurement of Factor Xa Inhibition
The FXa inhibitor potency was measured with a chromogenic substrate method, in a Plato 3300 robotic microplate processor (Rosys AG, CH-8634 Hombrechtikon, Switzerland), using 96-well, half-volume microtiter plates (Costar, Cambridge, Mass., USA; Cat No 3690). Stock solutions of test substance in DMSO (72 μL), 10 mmol/L, alternatively 1 mmol/L were diluted serially 1:3 (24+48 μL) with DMSO to obtain ten different concentrations, which were analyzed as samples in the assay, together with controls and blanks. As control sample melagatran was analysed. The dilutions of each test substance were analyzed consecutively, row-wise on the microtiter plate, with wash-cycles between substances to avoid cross-contamination. […] The final assay concentrations were: test substance 0.0068-133, respectively 0.00068-13.3 μmol/L, S-2765 0.40 mmol/L (KM=0.25 mmol/L) and FXa 0.1 nmol/L. The linear absorbance increase at 405 nm during 40 min incubation at 37° C. was used for calculation of percent inhibition for the test samples, as compared to references without inhibitor and/or enzyme. […]

T1 sequence (P00742 235-488 limits assumed): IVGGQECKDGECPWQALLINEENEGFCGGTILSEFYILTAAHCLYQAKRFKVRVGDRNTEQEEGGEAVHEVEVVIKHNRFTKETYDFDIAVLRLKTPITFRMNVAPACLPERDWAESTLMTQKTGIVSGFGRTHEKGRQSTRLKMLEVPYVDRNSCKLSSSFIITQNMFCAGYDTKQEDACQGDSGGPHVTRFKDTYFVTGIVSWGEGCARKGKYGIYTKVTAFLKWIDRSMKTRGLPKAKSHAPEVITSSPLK
T1 sequence (P00742 41-179 partner limits assumed): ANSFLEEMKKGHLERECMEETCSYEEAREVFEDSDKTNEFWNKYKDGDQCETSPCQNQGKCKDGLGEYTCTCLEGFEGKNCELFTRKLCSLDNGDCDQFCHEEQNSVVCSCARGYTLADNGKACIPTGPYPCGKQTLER

Row | IC50 | SMILES
1 | 55 nM | CNCCn1nc(-c2ccc(C(=O)N3CCN(S(=O)(=O)c4cc5cc(Cl)ccc5[nH]4)CC3)cc2)ccc1=O [Example 3, 6-{4-[4-(5-Chloro-1H-indole-2-sulphonyl)-piperazine-1-carbonyl]-phenyl}-2-(2-methylamino-ethyl)-2H-pyridazin-3-one]
2 | 38 nM | COCCOCCn1nc(-c2ccc(C(=O)N3CCN(S(=O)(=O)c4cc5cc(Cl)ccc5[nH]4)CC3)cc2)ccc1=O [Example 9, 6-{4-[4-(5-Chloro-1H-indole-2-sulphonyl)-piperazine-1-carbonyl]-phenyl}-2-[2-(2-methoxy-ethoxy)-ethyl]-2H-pyridazin-3-one]
